A short description of series [1]: Miscibility and physical state of phospholipid in propylene glycol. The class given is physicochemical. The note with it: all concentrations / any proportion.
A short description of series [2]: Retention of radio-labelled DPPC in the joint. The class given is in vivo, horse. The protocol:
4. More quantitative tests were undertaken in a further 4 horses administered radio-labelled 50 mg DPPC in 1 ml. The solution was injected into one contraleteral joint and the horse was sacrificed 2-10 days later when the cartilage was excised and synovial fluid collected for radio-assay.

The conditions of series [3]: cited from earlier work.
The subject of series [4] is phospholipases. The conditions noted are these: cited from earlier work.
The nature of series [5]: Inflammatory reaction of horse joints (protein, ALP, leucocyte count, specific gravity). The class given is in vivo. The note with it: 1 ml PG only, 6 horses. The protocol:
5. Having established the extreme lubricity imparted by exogenous DPPC and the fact that it is likely to remain in the joint for long enough to be worthwhile clinically, the next step was to look for any inflammatory reaction.
The following parameters were used as indices of inflammatory reaction:
2. Alkaline phosphatase (ALP)
6. In the next series of trials, the joints of 6 horses were injected with 1 ml of PG only to see whether the solvent was the major cause of the inflammatory reaction.
7. The main series of trials was then devised to compare the inflammatory reaction of the radiocarpal joint to the product (100 mg DPPC in 1 mlPG) with the reactions to other agents commonly injected into that joint in the normal course of clinical practice.
The agents selected for comparison were
1. A standard clinical (1 ml) dose of prilocaine--a local anaesthetic.
2. A standard clinical dose of hyaluromic acid (Hyartil)™ (1 ml) a joint lubricant.

Here are results for five compounds from patent US6133249A, “Phospholipid and propylene glycol based lubricant” (MacNaught Medical Pty Limited, priority 1995, dated 2000).

For the compound `CCCCCCCCCCCCCCCC(=O)OC[C@H](COP(=O)([O-])OCC[N+](C)(C)C)OC(=O)CCCCCCCCCCCCCCC` [DPPC, Dipalmitoyl phosphatidylcholine], the “miscibility with propylene glycol” value in series [1] was “totally miscible”. Also, in series [2] (conclusion), the “retention of DPPC in the joint” value is recorded as “retained in the joint for long enough to enable lubrication to be maintained by monthly or fortnightly irrigation”. The “time the joint would remain lubricated after an injection” value in series [2] (inferred from half-lives) is “about one month”. hyaluronic acid: the “inflammatory reaction in animal tissues” value in series [3] (in vivo) is “appreciable inflammatory reaction”. For `CCCCCCCCCCCCCCCC(=O)OC[C@@H](COP(=O)([O-])OCC[N+](C)(C)C)OC(=O)CCCCCCCCCCCCCCC` [D-enantiomeric alpha-DPPC, alpha-dipalmitoyl phosphatidylcholine], the “metabolism by endogenous phospholipases” value in series [4] is “cannot break down”. Turning to `CCCCCCCCCCCCCCCC(=O)OC[C@H](COP(=O)([O-])OCC[N+](C)(C)C)OC(=O)CCCCCCCCCCCCCCC` [L-enantiomeric alpha-DPPC, alpha-dipalmitoyl phosphatidylcholine], the “metabolism by endogenous phospholipases” value in series [4] was “capable of metabolising”. `CC(O)CO` (centres unmarked) [PG, propylene glycol]: in series [5], the “solvent as the major cause of the inflammatory reaction” value is reported as “This proved to be the case”. For the same compound, in series [3] (mammalian joints and other articulations), the “inflammatory reaction relative to hyaluronic acid” value is recorded as “somewhat less severe”.
